Converted amounts (≈) assume the structure as drawn.
Legend:
HIV-1 (IIIB) = experiment: microbe, parasite or virus in culture; format: cell-based; settings: for EC50 (ug/ml) HIV-1: CEM cells, syncytium formation, day four post infection; for HIV-1 % Protection: protection of CEM cells against virus-induced cytopathicity at the concentration in the previous column
Method in brief: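 Human T-lymphoblast CEM cells at roughly 300,000 cells per ml were infected with about 100 CCID50 of HIV-1 (IIIB). Then 100 μl of the infected suspension went into 200 μl microtiter wells holding 100 μl of 5-fold serial compound dilutions. Inhibition of syncytium formation was scored microscopically on day four post infection, and protection against virus-induced cytopathicity was recorded.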

HIV-2 (ROD) = experiment: Inhibition of HIV-2 syncytium formation in CEM cells; format: cell-based; settings: for EC50 (ug/ml) HIV-2: CEM cells, syncytium formation, day four post infection; for HIV-2 % Protection: protection of CEM cells against virus-induced cytopathicity at the concentration in the previous column
Method in brief: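 Human T-lymphoblast CEM cells, suspended at roughly 300,000 cells per ml of culture medium, were infected with about 100 CCID50 of HIV-2 (ROD). Aliquots of 100 μl of infected cells were placed in 200 μl microtiter wells holding 100 μl of serial 5-fold compound dilutions, and syncytium formation was scored microscopically four days after infection.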

Davis strain CMV = experiment: Reduction of CMV-induced cytopathicity in HEL cells; format: cell-based, human cytomegalovirus (HCMV); settings: HEL cells; for Antiviral EC50 (ug/ml) Davis strain CMV: virus-induced cytopathicity after seven days
Method in brief: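 Confluent HEL cells were infected with 100 PFU/well CMV for 1–2 h, then washed and kept in MEM with 2% FCS and test compound. EC50 is the concentration cutting virus-induced cytopathicity by 50% versus untreated control at day 7. Where cytotoxicity interfered, percent protection at the stated concentration is given.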

SMILES | EC50 (ug/ml) HIV-1 (HIV-1 (IIIB)) | EC50 (ug/ml) HIV-2 (HIV-2 (ROD)) | Antiviral EC50 (ug/ml) Davis strain CMV (Davis strain CMV) | HIV-1 % Protection (HIV-1 (IIIB)) | HIV-2 % Protection (HIV-2 (ROD)) | Antiviral % Inhibition Davis strain CMV (Davis strain CMV; estimate of percent protection at the concentration in the previous column)
Cc1ccc(C)c(CS(=O)(=O)c2cccc(C)[n+]2[O-])c1 [Compound 72] | 4.00 µg/mL (≈ 13.7 µM) | >100.0 µg/mL | >50 µg/mL |  | 0.0% | 0.0%
CCC(C)(C)c1ccc(CS(=O)(=O)c2cccc[n+]2[O-])cc1 [Compound 40, 2-(((4-(1,1-dimethyl)propyl)phenyl)methylsulfonyl)pyridine-N-oxide] | 3.10 µg/mL (≈ 9.7 µM) | 3.4 µg/mL (≈ 10.6 µM) | 1.5 µg/mL |  |  | 

Now from value to compound, other results behind:

EC50 (ug/ml) HIV-1 (HIV-1 (IIIB)) | EC50 (ug/ml) HIV-2 (HIV-2 (ROD)) | Antiviral EC50 (ug/ml) Davis strain CMV (Davis strain CMV) | SMILES | HIV-1 % Protection (HIV-1 (IIIB)) | HIV-2 % Protection (HIV-2 (ROD)) | Antiviral % Inhibition Davis strain CMV (Davis strain CMV; estimate of percent protection at the concentration in the previous column)
≧4 ug/ml | 2.6 µg/mL (≈ 8.51 µM) | 3.2 µg/mL | CC(C)Cc1ccc(CS(=O)(=O)c2cccc[n+]2[O-])cc1 [Compound 55] | 37.5% |  | 
>20 µg/mL | >20 µg/mL | 11.0 µg/mL | O=S(=O)(Cc1cccs1)c1cccc[n+]1[O-] [Compound 8] | 0.0% | 0.0% | 
>4 µg/mL | >4 µg/mL | 7.0 µg/mL | O=[N+]([O-])c1ccc(CS(=O)(=O)c2cccc[n+]2[O-])cc1 [Compound 14] | 0.0% | 25.0% | 

From patent publication US7064139B2, “Method for treating retroviral infections” (Uniroyal Chemical Company, Inc., priority 2001, dated 2006)
